US20050085408A1, “Drugs ameliorating hypo-hdl cholesterolemia” (priority 2001, published 2005)
Where a SMILES comes first, the peptide text is derived from it. [ ]: non-standard residue; d: D form. Nle = CCCC[C@H](N)C(=O)O

What was measured:
ABCA1 = experiment: Increase of the expression of ABCA1 in THP-1-derived macrophages (immunoblotting); format: cell-based, human; details: for intracellular expression of ABCA1 compared with control cells: THP-1 macrophages
Procedure: THP-1 cells (human leukemia cell, American Type Culture Collection) were cultured for 72 hours in a 10% FBS-RPMI1640 medium (Iwaki Glass Co., Ltd.), together with PMA (phorbol myristate acetate, Wako Pure Chemical Industries Ltd.) to obtain differentiated macrophages. The medium was replaced with 0.2% BSA-RPMI 1640 (Iwaki Glass Co., Ltd.) to which ALLN (50 μM, Sigma) was added, and examined for the time-course of intracellular ABCA1 expression according to the method illustrated herein below.
ALLN-treated cells and control cells cultivated in ALLN-free media were hypotonically disrupted in 5 mM Tris-HCl (pH8.5), and then centrifuged (650 g, for 5 minutes) to precipitate nuclear fractions. The supernatant was centrifuged at 105,000 g for 30 minutes to collect a total membrane fraction. The total membrane was dissolved in an aqueous solution containing 0.9M urea, 0.2% triton X-100 (Wako Pure Chemical Industries Ltd.), and 0.1% dithiothreitol (Wako Pure Chemical Industries Ltd.), followed by addition of 10% lithium dodecyl sulfate solution (Wako Pure Chemical Industries Ltd.) at a volume ratio of 1/4. The resultant was subjected to electrophoretic separation using 10% SDS-7% polyacrylamide gel (Wako Pure Chemical Industries Ltd.). The separated protein was fixed and transferred onto PVDF membrane (Bio-Rad). Each sample was then subjected to immunoblotting with rabbit anti-human ABCA1 antibody (self-made purification by an ordinary method) to quantitate expressed ABCA1 proteins. The obtained bands were read for density and size with Scion Image (image analysis software, Scion) to digitize the results.
In the same manner as in Assay Example 1, THP-1 cells were cultured in a medium to which leupeptin was added in place of ALLN, and compared with control cells non-treated with leupeptin.

THP-1 cells = experiment: Acceleration of apoAI-dependent HDL formation (cholesterols and phospholipids transported into the medium); format: cell-based, human; details: apoAI & ALLN-added cells vs control group and apoAI-added group; FIG. 3
From the text: In the same manner as in Arakawa et al., J. Lipid Res., 41, 1952-1962 (2000), THP-1 cells were used for quantitative analysis of cholesterols and phospholipids transported into the medium on the basis of apoAI-dependent HDL formation. ALLN-added cells were compared with those free of ALLN addition.

SMILES	intracellular expression of ABCA1 compared with control cells (ABCA1; leupeptin in place of ALLN, FIG. 2 at 7 hours after addition)	action of elevating the expression of ABCA1 (ABCA1; leupeptin, 24 hours after addition to the medium)	intracellular expression of ABCA1 compared with control cells (ABCA1; ALLN 50 μM in medium)	action of increasing the expression of ABCA1 (ABCA1; ALLN 50 μM, 24 hours after addition)	amount of apoAI-dependently transported cholesterols (THP-1 cells)	amount of apoAI-dependently transported phospholipids (THP-1 cells)
CC(=O)N[C@@H](CC(C)C)C(=O)N[C@@H](CC(C)C)C(=O)N[C@H](C=O)CCCNC(=N)N [leupeptin]	remarkable increase in the intracellular expression of ABCA1	found even 24 hours after addition	–	–	–	–
CCCC[C@@H](C=O)NC(=O)[C@H](CC(C)C)NC(=O)[C@H](CC(C)C)NC(C)=O [ALLN, N-acetyl-leu-leu-norleucinal] (Ac-Leu-Leu-[Nle]-aldehyde)	–	–	remarkable intracellular expression of ABCA1	found even 24 hours after addition	increase	increase
